In paper PMC11054528, “Evaluation of Physicochemical Properties of Ipsapirone Derivatives Based on Chromatographic and Chemometric Approaches” (Molecules, 2024):

Key:
[1] = calibration mixture for IAM-HPLC, reference CHI value; column head printed CHI C18; cited from earlier work
[2] = biological target: T1, human serum albumin (HSA) (Homo sapiens, UniProt P02768); settings: calibration mixture for HSA-HPLC, reference value; column head printed CHI C18; cited from earlier work
[3] = calibration mixture for C18-HPLC, reference CHI value; cited from earlier work
[4] = Fast gradient RP-HPLC on C18 column (CHI lipophilicity); format: physicochemical; settings: for CHIC18 pH = 2.6 / CHIC18 pH = 7.4 / CHIC18 pH = 10.6: C18 column; for CHI LogP: from chromatographically determined CHI on nonionized forms (pH 10.6), CHI LogP = 0.054 × CHI − 1.467
Source text: Considering the significant differences in the calculations obtained, the next step of our investigation considered the determination of lipophilicity using a chromatographic approach. Among the available protocols, the fast gradient approach developed by Valko was chosen because it enables the assessment of lipophilicity from a single chromatographic measurement. In addition, this approach enables the determination of the acid/basic properties of molecules through the addition of experiments under different pH conditions.
Therefore, the CHI under pH10.6 can be considered and converted to chromatographically determined LogP, called CHI LogP. A cluster analysis (CA) was performed to compare chromatographically determined and calculated lipophilicity. A CA can be used for the visualization of similarities and differences between studied objects, in this case, lipophilic parameters. The obtained results clearly indicate that significant differences between theoretical and experimental data occurred, and they formed two separate groups (Figure 1). The differences are also visible on the calculated correlation matrix (Figure 2).
For RP-HPLC experiments, a C18 Hypersil GOLD^TM (50 mm × 4.6 mm; 5.0 µm with a guard column; Thermo Scientific, Waltham, MA, USA) column was applied. The column temperature was set to 40 °C. Three water solutions were used as mobile phase A: acetic acid at pH 2.6, […] at pH 7.4, and 50 mM ammonium acetate at pH 10.5. Mobile phase B was acetonitrile (ACN). The linear gradient from 2 to 98% ACN was applied from 0 to 5.25 min and held at 98% ACN for 1.75. The mobile phase flow rate was 1.5 mL/min throughout the experiment.

[5] = IAM-HPLC, immobilized artificial membrane chromatography (affinity to phospholipids); format: physicochemical; parameters: scale not given here; settings: IAM.PC.DD2 column, pH 7.4
Source text: In considering that lipophilicity is a known factor influencing passive diffusion across the BBB, this is an important observation. The affinity to phospholipids can also be determined using one-gradient protocols and the IAM column. CHIIAM can be used as a cut-off point to indicate the potential for promiscuous binding and interference with phospholipids.
The immobilized artificial membrane column (IAM.PC.DD2, 10 × 4.6 mm × 10.0 µm with a guard column (Regis Technologies; Morton Grove, IL, USA) was used for IAM-HPLC experiments. The column temperature was set to 30 °C. Similar to RP-HPLC, mobile phase A was a 50 mM ammonium acetate at pH 7.4, and mobile phase B was acetonitrile. The linear gradient from […] ACN was applied from 0 to 5.25 min and held at 98% ACN for 0.5 min at a constant flow rate of 1.5 mL/min.

[6] = biological target: T1, human serum albumin (HSA); assay: HSA-HPLC, biomimetic chromatography on Chiralpak HSA column; format: in vitro ADME; parameters: purchased Daicel Chiral Technologies, West Chester, PA, USA; settings: for LogKHSA: pH 7.4; for %HSA: pH 7.4, recalculated from logKHSA
Source text: Utilizing columns modified by plasma proteins, such as human serum albumin (HSA), allows for estimating binding to plasma protein (PPB). Generally, PPB affects drug pharmacokinetics, including distribution, half-life, and clearance. While lipophilicity is a well-known factor in determining PPB, it should also be considered in early drug discovery. In general, more lipophilic compounds tend to have higher percentages of PP due to nonspecific interactions with proteins. However, hydrophilic compounds can also bind strongly to PP through […] and electrostatic interactions by binding in protein pockets.
For HSA-HPLC experiments, the column was Chiralpak® HSA (100 × 4 mm; 5 µm with safety guard column; Daicel Chiral Technologies, West Chester, PA, USA). The column temperature was set to 30 °C. The same phase A as in the IAM-HPLC case was used, and the mobile phase B was isopropanol (i-PrOH). The linear gradient from 0 to 20% i-PrOH was applied from 0 to 15 min, held at 20% i-PrOH for 12 min, and then returned to pure ammonium acetate solution. The mobile phase flow rate was 0.9 mL/min throughout the experiment. Three minutes of column recalibration was applied between each run. The retention times were collected at wavelengths between 190 and 300 nm, and the injection volume was 10 μL.

T1 sequence (P02768 25-609): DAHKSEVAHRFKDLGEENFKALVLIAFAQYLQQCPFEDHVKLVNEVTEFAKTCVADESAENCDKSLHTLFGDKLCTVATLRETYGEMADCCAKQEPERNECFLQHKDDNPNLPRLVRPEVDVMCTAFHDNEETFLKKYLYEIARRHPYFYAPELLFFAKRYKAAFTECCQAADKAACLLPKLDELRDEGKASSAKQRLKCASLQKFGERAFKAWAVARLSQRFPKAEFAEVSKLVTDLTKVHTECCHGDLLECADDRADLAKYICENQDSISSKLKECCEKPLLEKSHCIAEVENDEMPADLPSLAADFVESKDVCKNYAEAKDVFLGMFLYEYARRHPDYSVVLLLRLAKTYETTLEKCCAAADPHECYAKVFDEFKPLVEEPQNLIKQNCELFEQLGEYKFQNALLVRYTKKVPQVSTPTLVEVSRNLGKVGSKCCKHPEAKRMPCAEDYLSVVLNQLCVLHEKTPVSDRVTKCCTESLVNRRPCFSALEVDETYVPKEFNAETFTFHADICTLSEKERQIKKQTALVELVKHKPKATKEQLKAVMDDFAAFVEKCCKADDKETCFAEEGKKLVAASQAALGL

CC(=O)Nc1ccc(O)cc1 [Paracetamol]
CHI (IAM-HPLC calibration) [1]: 2.9

CCCCC(=O)c1ccccc1 [Valerophenone]
CHI (IAM-HPLC calibration) [1]: 37.3

CCCC(=O)c1ccccc1 [Butyrophenone]
CHI (IAM-HPLC calibration) [1]: 32.0

CNC(=C[N+](=O)[O-])NCCSCc1csc(CN(C)C)n1 [Nizatidine]
HSA binding (HSA-HPLC calibration) [2]: 35.0%

CC(=O)c1ccccc1 [Acetophenone]
CHI (IAM-HPLC calibration) [1]: 17.2

CCCCCCC(=O)c1ccccc1 [Heptanophenone]
CHI (IAM-HPLC calibration) [1]: 45.7

CCC(=O)c1ccccc1 [Propiophenone]
CHI C18 [3]: 77.5 | CHI (IAM-HPLC calibration) [1]: 25.9

COc1ccc(N2CCN(CCCCCCN3C(=O)c4ccccc4S3(=O)=O)CC2)cc1 [molecule 15]
CHIC18 pH = 2.6 [4]: 55.04 | CHIC18 pH = 7.4 [4]: 87.50 | CHIC18 pH = 10.6 [4]: 96.78 | CHI LogP [4]: 3.76 | CHIIAM [5]: 40.04 | LogKHSA [6]: 0.65 | %HSA [6]: 82.67%

CCCCCCCC(=O)c1ccccc1 [Octanophenone]
CHI (IAM-HPLC calibration) [1]: 49.4

CCCCCC(=O)c1ccccc1 [Hexanophenone]
CHI (IAM-HPLC calibration) [1]: 41.8

COc1ccccc1N1CCN(CCCCCCN2C(=O)c3ccccc3S2(=O)=O)CC1 [molecule 13]
CHIC18 pH = 2.6 [4]: 54.89 | CHIC18 pH = 7.4 [4]: 84.12 | CHIC18 pH = 10.6 [4]: 96.78 | CHI LogP [4]: 3.76 | CHIIAM [5]: 40.54 | LogKHSA [6]: 0.42 | %HSA [6]: 73.28%

CC(=O)Nc1ccccc1 [Acetanilidine]
CHI (IAM-HPLC calibration) [1]: 11.5

O=C1c2ccccc2S(=O)(=O)N1CCCCCN1CCN(c2cccc3ccccc23)CC1 [molecule 11]
CHIC18 pH = 2.6 [4]: 63.51 | CHIC18 pH = 7.4 [4]: 104.83 | CHIC18 pH = 10.6 [4]: 111.43 | CHI LogP [4]: 4.55 | CHIIAM [5]: 47.26 | LogKHSA [6]: 1.67 | %HSA [6]: 98.90%

O=C1c2ccccc2S(=O)(=O)N1CCCCCN1CCN(c2ccccn2)CC1 [molecule 10]
CHIC18 pH = 2.6 [4]: 38.96 | CHIC18 pH = 7.4 [4]: 76.74 | CHIC18 pH = 10.6 [4]: 84.51 | CHI LogP [4]: 3.10 | CHIIAM [5]: 35.73 | LogKHSA [6]: 0.72 | %HSA [6]: 84.71%

O=C1c2ccccc2S(=O)(=O)N1CCCCCN1CCN(c2ccc(Cl)cc2)CC1 [molecule 8]
CHIC18 pH = 2.6 [4]: 97.99 | CHIC18 pH = 7.4 [4]: 101.36 | CHIC18 pH = 10.6 [4]: 100.81 | CHI LogP [4]: 3.98 | CHIIAM [5]: 44.30 | LogKHSA [6]: 1.53 | %HSA [6]: 98.11%

COc1ccccc1N1CCN(CCCCCN2C(=O)c3ccccc3S2(=O)=O)CC1 [molecule 6]
CHIC18 pH = 2.6 [4]: 52.94 | CHIC18 pH = 7.4 [4]: 79.45 | CHIC18 pH = 10.6 [4]: 91.77 | CHI LogP [4]: 3.49 | CHIIAM [5]: 38.03 | LogKHSA [6]: 0.68 | %HSA [6]: 83.59%

O=C1c2ccccc2S(=O)(=O)N1CCCCCN1CCN(c2cccc(Cl)c2Cl)CC1 [molecule 7]
CHIC18 pH = 2.6 [4]: 72.79 | CHIC18 pH = 7.4 [4]: 112.26 | CHIC18 pH = 10.6 [4]: 112.92 | CHI LogP [4]: 4.63 | CHIIAM [5]: 48.28 | LogKHSA [6]: 1.77 | %HSA [6]: 99.31%
